This is an account of results in patent US20230159583A1, “COMPOUND FOR TREATING GOUT, PREPARATION METHOD THEREFOR, AND USE THEREOF” (Huazhong Pharmaceutical Co., Ltd., priority 2020, published 2023).

Structures are written as SMILES. Read-outs that look alike come from different tables or passages of the source.

Holding throughout (assay type): in vivo
Data set [1] has as its system carrageenan-induced mouse paw swelling. The data set is described as follows: carrageenan-induced mouse paw swelling model. To be noted: for Circumference of the paw after administration: 180 min after onset of inflammation (0.5% carrageenan); for inhibition in vivo at 0.26 mg/kg / inhibition in vivo at 13 mg/kg / inhibition in vivo at 130 mg/kg / change in vivo at 130 mg/kg: Mus musculus, po, 3 h; for inhibition in vivo at 0.26 mg/kg: dosage 0.26 mg/kg; for inhibition in vivo at 0.26 mg/kg / inhibition in vivo at 13 mg/kg / inhibition in vivo at 130 mg/kg: read-out: Swelling inhibition rate; for inhibition in vivo at 13 mg/kg: dosage 13 mg/kg; for change in vivo at 130 mg/kg: read-out: Swelling degree. The procedure:
The anti-inflammatory effects of the compounds prepared in the above Examples were detected using a carrageenan-induced mouse paw swelling model, and the control sample was methylprednisolone:
Carrageenan-induced mouse paw swelling model is a classical acute inflammation model commonly used for evaluating or screening anti-inflammatory effects of drugs. When carrageenan is injected into the paw of mice, a series of reactions similar to human acute inflammation such as local capillary dilatation, increased vascular permeability, exudation and edema can be caused, so the model can be widely used in the evaluation of new drugs.
Reference for experimental method: Yang Huan, Cheng Xiao, Wang Yuehua, Du Guanhua. Effects of esculin on the swelling of toes and inflammation induced by carrageenan in mice [J]. Chinese Journal of New Drugs, 2016(25):2322.
On the day of the experiment, the circumference of right hind paw (cm) of each mouse was measured firstly, and then, after the onset of inflammation, the circumference of right hind paw was measured so that the difference of the circumferences of the paws before and after inflammation was swelling degree, and the swelling inhibition rate of paw (swelling inhibition rate %=(C−T)/C*100%); C=swelling rate of the control group %, and T=swelling rate of the treatment group) was calculated.
(2) Gavage administration was performed once a day for seven consecutive days. The circumference of the right hind paw was marked and measured before the last administration, and the average value of the two measurements was taken as the standard. 30 min after the last administration, 20 μL/mice of 0.5% carrageenan was injected into the right hind ankle of the mice to induce inflammation, and the circumference of paw was measured 180 min after the onset of inflammation. […]
Background: In the carrageenan paw model, swelling and tenderness develop within hours.

For data set [2], the system named is ICR mice. The settings on record: p.o. The procedure:
The experiment was designed according to the “Technical Guideline for Acute Toxicity Test of Chemical Drugs” issued by the State Food and Drug Administration in March 2005. The doses administered were 4 g/kg, 4.91 g/kg, 6.14 g/kg, 7.68 g/kg, 9.6 g/kg, 12 g/kg, and 15 g/kg (the dose could be adjusted according to the actual test results), 12 ICR mice per dose group. If the administration volume is greater than 0.5 ml, it is better to perform the drug administration in two or more times (Note: according to the national standard GB 15193.3-2014, if multiple drug administrations are required, the time interval should be 4 h to 6 h each time, and the patient should be fasted on the day before drug administration).

For data set [3], the system named is rat paw swelling induced by monosodium urate (MSU). The data set is described as follows: rat paw swelling model induced by monosodium urate (MSU). To be noted: for inhibition in vivo at 90 mg/kg / inhibition in vivo at 0.36 mg/kg / inhibition in vivo at 1.8 mg/kg / inhibition in vivo at 9 mg/kg / change in vivo at 90 mg/kg: Rattus norvegicus, po; for inhibition in vivo at 90 mg/kg / inhibition in vivo at 0.36 mg/kg / inhibition in vivo at 1.8 mg/kg / inhibition in vivo at 9 mg/kg: 1 h, read-out: Swelling inhibition rate; for inhibition in vivo at 0.36 mg/kg: dosage 0.36 mg/kg; for inhibition in vivo at 1.8 mg/kg: dosage 1.8 mg/kg; for inhibition in vivo at 9 mg/kg: dosage 9 mg/kg; for change in vivo at 90 mg/kg: read-out: Swelling degree; for Mean volume of paw after administration: 1 h after onset of inflammation (50 μL 2% MSU). The text has this:
Gout is a disease unique to human, and gouty arthritis is an inflammatory reaction caused by the deposition of monosodium urate (MSU) in local joint tissues. Since purine metabolism pathways in some mammals such as mice and rabbits are different from those in humans, it is impossible to construct a gouty arthritis model by the method of interfering with purine metabolism disorders, so the most direct method for causing gouty arthritis is to directly inject MSU into the joint cavity of the model animal. The model is only used for simulating local joint inflammation of gout, is suitable for observation of local arthritis symptoms, is a common method for screening anti-inflammatory effects of gout drugs at present, and has the advantages of stability, easy operation and the like. (Reference: Li Na, Hua Long, and Yuan Hui. Research progress of gout animal models [J]. Medical theory and practice, 2016(24).
The anti-gout effect of the compound prepared in the above Example was detected by using a rat paw swelling model induced by monosodium urate (MSU), and the control sample was methylprednisolone.
Experimental method: MSU was used as an inflammatory agent, injected subcutaneously into the hind paws of rats to cause paw swelling, and then the volume of the paws was measured, and the swelling rates and swelling inhibition rates of the treatment group and the control group were compared. On the day of the experiment, the volume of right hind paw (ml) of each rat was measured firstly, and then after the onset of inflammation, the volume of right hind paw was measured so that the difference of volume of paw before and after inflammation was swelling degree, and the swelling inhibition rate of paw (swelling inhibition rate %=(C−T)/C*100%); C=swelling rate of the control group %, and T=swelling rate of the treatment group) was calculated. This method is one of the commonly used methods for screening anti-inflammatory effects of gout drugs, and the model is stable and easy to operate.
(2) One week before the subcutaneous injection of MSU into the feet and soles of the rats, the rats were given different doses of the test drugs, and the drugs were given by gavage once a day, for seven consecutive days. The circumference of the right hind paw was marked and measured before the last administration, and the average value of the two measurements was taken as the standard. 1 h after the last administration, animals in other groups were given 50 μL of 2% MSU in addition to the blank control group, and the paw circumference was measured 1 h after the onset of inflammation. […]

The mark [4] stands for this setting: ICR mice, 130 mg/kg by gavage once a day for seven days, 180 min after onset of inflammation.
Where [5] appears, read: ICR mice, 130 mg/kg by gavage once a day for seven days.
[6] abbreviates: mouse, carrageenan-induced paw swelling.
The mark [7] stands for this setting: mouse, carrageenan-induced paw swelling, dosage 130 mg/kg.
The mark [8] stands for this setting: SD rats, 90 mg/kg by gavage once a day for seven days, 1 h after onset of inflammation.
Where [9] appears, read: rat, MSU-induced paw swelling, dosage 90 mg/kg.
Setting [10] is: SD rats, 90 mg/kg by gavage once a day for seven days.

In the case of `CCON=C1C=C[C@@]2(C)C(=C1)CC[C@@H]1[C@@H]2[C@@H](O)C[C@@]2(C)[C@H]1C[C@@H](C)[C@]2(O)/C(COC(C)=O)=N/OCC` [Example 11], the Swelling value stood at 0.1 cm in data set [1] (setting [4]) and 1.42 mL in data set [3] (setting [8]). The “Circumference of the paw after administration” value (shortened to “Circumference of the paw”) in data set [1] (setting [5]) amounted to 1.53 cm. Further, the inhibition in vivo at 0.26 mg/kg in data set [1] (setting [6]) is 15.5%. In addition, in data set [1] (setting [6]), the inhibition in vivo at 13 mg/kg turned out to be 35.8%. For the same compound, the inhibition in vivo at 130 mg/kg turned out to be 68.1% in data set [1] (setting [7]) and 63.9% in data set [1] (setting [4]). The change in vivo at 130 mg/kg in data set [1] (setting [4]) was determined as 6.99%. Besides, the Mortality in data set [2] (4 g/kg), in data set [2] (4.91 g/kg), in data set [2] (6.14 g/kg), in data set [2] (7.68 g/kg), in data set [2] (9.6 g/kg) and in data set [2] (12 g/kg) was 0/12 each time. Further, the Mortality in data set [2] (15 g/kg) is on record as 0/12. Further, the inhibition in vivo at 90 mg/kg stood at 64.7% in data set [3] (setting [8]) and 67.5% in data set [3] (setting [9]). Moreover, the inhibition in vivo at 0.36 mg/kg in data set [3] (rat, MSU-induced paw swelling) came out at 10.2%. Further, in data set [3] (rat, MSU-induced paw swelling), the inhibition in vivo at 1.8 mg/kg was found to be 35.2%. The inhibition in vivo at 9 mg/kg in data set [3] (rat, MSU-induced paw swelling) was 49%. The change in vivo at 90 mg/kg in data set [3] (setting [8]) turned out to be 116%. In addition, the “Mean volume of paw after administration” value in data set [3] (setting [10]) turned out to be 2.64 mL.

Consider `CCC(=O)OC/C(=N\O)[C@@]1(O)[C@H](O)C[C@H]2[C@@H]3CCC4=CC(=NO)C=C[C@]4(C)[C@@]3(F)[C@@H](O)C[C@@]21C` [Example 14, (2E)-2-((8S,9R,10S,11S,13S,14S,16R,17R)-9-fluoro-11,16,17-trihydroxy (hydroxyimino)-10,13-dimethyl-6,7,8,9,10,11,12,13,14,15,16,17-dodecahydro-3H-cyclopentane[α]phenanthrene-17-yl)-2-(hydroxyimino)ethyl propionate], for which the Swelling value was 0.03 cm in data set [1] (setting [4]) and 0.56 mL in data set [3] (setting [8]). In addition, in data set [1] (setting [5]), the “Circumference of the paw” value is recorded as 1.45 cm. Moreover, the inhibition in vivo at 0.26 mg/kg in data set [1] (setting [6]) was found to be 20.3%. The inhibition in vivo at 13 mg/kg in data set [1] (setting [6]) was 49.2%. Also, the inhibition in vivo at 130 mg/kg in data set [1] (setting [7]) is 92.1%; in data set [1] (setting [4]), 89.1%. For the same compound, the change in vivo at 130 mg/kg in data set [1] (setting [4]) was 2.11%. Besides, the Mortality in data set [2] (4 g/kg) is listed as 0/12; in data set [2] (4.91 g/kg), 0/12; in data set [2] (6.14 g/kg) it was 0/12; in data set [2] (7.68 g/kg), 0/12; in data set [2] (9.6 g/kg), 1/12; in data set [2] (12 g/kg), 1/12. Further, in data set [2] (15 g/kg), the Mortality is 3/12. For the same compound, the figures for the inhibition in vivo at 90 mg/kg in data set [3] (setting [8]) and in data set [3] (setting [9]) were 85.6% and 86.3%, respectively. Further, the inhibition in vivo at 0.36 mg/kg in data set [3] (rat, MSU-induced paw swelling) amounted to 5.23%. Moreover, the inhibition in vivo at 1.8 mg/kg in data set [3] (rat, MSU-induced paw swelling) worked out at 34.2%. For the same compound, in data set [3] (rat, MSU-induced paw swelling), the inhibition in vivo at 9 mg/kg was found to be 65.2%. Further, the change in vivo at 90 mg/kg in data set [3] (setting [8]) was found to be 47.5%. For the same compound, the “Mean volume of paw after administration” value in data set [3] (setting [10]) stood at 1.74 mL.

With `CCCCC(=O)O[C@]1(/C(CO)=N/O)CC[C@H]2[C@@H]3C[C@H](C)C4=CC(=NO)C=C[C@]4(C)[C@H]3[C@@H](O)C[C@@]21C` [Example 17, (6S,8S,9S,10R,11S,13S,14S,17R,E)-11-hydroxy-17-((E)-2-hydroxy-1-(hydroxyimino)ethyl)-3-(hydroxyimino)-6,10,13-trimethyl-6,7,8,9,10,11,12,13,14,15,16,17-dodecahydro-3H-cyclopentane[α]phenanthrene-17-yl valerate], the Swelling value in data set [1] (setting [4]) amounted to 0.01 cm; in data set [3] (setting [8]), 0.14 mL. Further, the “Circumference of the paw” value in data set [1] (setting [5]) amounted to 1.43 cm. For the same compound, in data set [1] (setting [6]), the inhibition in vivo at 0.26 mg/kg came to 28.2%. Also, the inhibition in vivo at 13 mg/kg in data set [1] (setting [6]) worked out at 60.3%. Also, the inhibition in vivo at 130 mg/kg was determined as 98.7% in data set [1] (setting [7]) and 96.4% in data set [1] (setting [4]). Further, the change in vivo at 130 mg/kg in data set [1] (setting [4]) was 0.7%. Moreover, the Mortality in data set [2] (4 g/kg), in data set [2] (4.91 g/kg), in data set [2] (6.14 g/kg), in data set [2] (7.68 g/kg), in data set [2] (9.6 g/kg) and in data set [2] (12 g/kg) was 0/12 throughout. Further, the Mortality in data set [2] (15 g/kg) is 0/12. Also, the inhibition in vivo at 90 mg/kg in data set [3] (setting [8]) stood at 96.4%; in data set [3] (setting [9]) it was 97%. The inhibition in vivo at 0.36 mg/kg in data set [3] (rat, MSU-induced paw swelling) was found to be 10.3%. In data set [3] (rat, MSU-induced paw swelling), the inhibition in vivo at 1.8 mg/kg worked out at 56.1%. Besides, the inhibition in vivo at 9 mg/kg in data set [3] (rat, MSU-induced paw swelling) was 78.2%. The change in vivo at 90 mg/kg in data set [3] (setting [8]) was determined as 11.9%. In addition, the “Mean volume of paw after administration” value in data set [3] (setting [10]) amounted to 1.32 mL.
